Assay results as given in US8916541B2, “Synergistic combination of honokiol and modified citrus pectin in cancer therapy” (Better Health Publishing, Inc., priority 2011, dated 2014).

Key:
[1] = tested on: T-helper/inducer lymphocyte subset (CD3/CD4); experiment: FastImmune CD69 T-helper/inducer lymphocyte activation in whole blood cultures; format: cell-based, human; settings: 10 ng/ml
Text: (§1) In vitro lymphocyte activation represents a standard approach for evaluating cell-mediated responses to a variety of stimuli including immunostimulatory botanical extracts. The FastImmune assay system monitors the expression of the early activation marker CD69 in whole blood after stimulation with extracts.
(§2) T-lymphocyte subsets can be identified and quantified by using fluorochrome-labeled antibody combinations such as CD4/CD69/CD3 and CD8/CD69/CD3. CD4 antigen is expressed on the T-helper/inducer lymphocyte subset (CD3/CD4). CD8 antigen is expressed on the human suppressor/cytotoxic T-lymphocyte subset (CD3/CD8). Once activated both CD4 and CD8 positive T cells express CD69.
(§3) Blood samples were collected from healthy volunteers and 250 μl blood sample were incubated in 48-well plates with increasing concentrations of compound along with appropriate positive controls (recommended by Becton Dickinson Biosciences, CA) for each subset. CD2/CD2R and Phorbol ester (PMA) were used as controls for T-lymphocyte activation studies. […] T2CA, a characterized polysaccharide complex evaluated in these assays was also used as a control. The blood cultures were incubated at 37° C. in a CO2 incubator for 24 h. […] The percentage of activated T-cell subsets, B-cells and NK-cells and the percentage increase over untreated control were calculated and plotted against compound concentrations.

[2] = tested on: suppressor/cytotoxic T-lymphocyte subset (CD3/CD8); experiment: FastImmune CD69 T-cytotoxic/suppressor lymphocyte activation in whole blood cultures; format: cell-based, human; settings: 10 ng/ml
Text: as §1, §2, §3

[3] = tested on: liver cancer BEL-7404 cell line cells; experiment: MTT cell viability assay
[4] = increase over untreated control

Compound	T-helper/inducer Lymphocyte Activation, Activation (%) ([1]; 24 h blood culture)	T-helper/inducer Lymphocyte Activation, % Increase [1, 4] [%]	T-cytotoxic/suppressor Lymphocyte Activation, Activation (%) ([2]; 24 h blood culture)	T-cytotoxic/suppressor Lymphocyte Activation, % Increase [2, 4] [%]	cell growth inhibition ([3]; 10 μg/ml of HNK, 72 hour treatment, BEL-7404 cells) [%]	inhibition ([3]; 5 mcg/ml of HNK alone, BEL-7404 cells, FIG. 1)	cytotoxicity on BEL-7404 cells (in words) ([3]; 72 hour treatment, single agents)
CCCCCCCCCCCCCC(=O)O[C@@H]1[C@@H](C)[C@@]2(O)[C@@H](C=C(CO)C[C@]3(O)C(=O)C(C)=C[C@@H]23)[C@@H]2C(C)(C)[C@]12OC(C)=O [PMA, Phorbol ester]	5.93	120.86	5.68	54.45			
C=CCc1ccc(O)c(-c2ccc(O)c(CC=C)c2)c1 [HNK, honokiol]					68.7	around 25%	cytotoxicity on BEL-7404 cells in a dose dependent manner
